Legend:
[1] = tested on: patients with PD; assay: Circadian rhythm of wrist skin temperature; type: in vivo, human; conditions: for circadian rhythm of wrist skin temperature (IS, IV, RA, CFI): fixed dose vs baseline, 12 evaluable patients
Protocol: (6) I-Button Temperature Assessment. The I-Button is a small, rugged self-sufficient system that measures temperature and records the results in a protected memory section. The Thermochron I-Button DS1921H (Maxim Integrated, Dallas, Tex.) was used for skin temperature measurement. I-Buttons were programmed to sample every 10 mins., and attached to a double-sided cotton sport wrist band using Velcro, with the sensor face of the I-Button placed over the inside of the wrist, on the radial artery of the dominant hand. Subjects removed and replaced the data logger when necessary (i.e., to have a bath or shower). The value of skin temperature assessment in sleep research is that the endogenous skin warming resulting from increased skin blood flow is functionally linked to sleep propensity. From the collected data, the mesor, amplitude, acrophase (time of peak temperature), Rayleight test (an index of interdaily stability), mean waveforms are calculated.);
Circadian rhythm of skin temperature was evaluable in 12 patients (i.e., those who had recordings that extended from baseline through washout). Circadian system functionality was evaluated by continuously monitoring wrist skin temperature using a temperature sensor (Thermochron iButton DS1921H; Maxim, Dallas, Tex.) (Sarabia et al. 2008). A nonparametric analysis was performed for each participant to characterize DST as previously described (Sarabia et al. 2008; Ortiz-Tudela et al. 2010).
Briefly, this analysis includes the following parameters: (i) the inter-daily stability (the constancy of 24-hour rhythmic pattern over days, IS); (ii) intra-daily variability (rhythm fragmentation, IV); (iii) average of 10-minute intervals for the 10 hours with the minimum temperature (L10); (iv) average of 10-minute intervals for the 5 hours with the maximum temperature (M5) and the relative amplitude (RA), which was determined by the difference between M5 and L10, divided by the sum of both. Finally, the Circadian Function Index (CFI) was calculated by integrating IS, IV, and RA. […]

[2] = tested on: patients with PD and constipation; assay: Adverse events, Stage 1; type: in vivo, human; conditions: Stage 1, 10 dosed
Source text: Tolerability limits included diarrhea or vomiting.

[3] = tested on: patients with PD and constipation; assay: Adverse events, Stage 2; type: in vivo, human; conditions: Stage 2, number of patients
Protocol: (§1) In Stage 2, 34 patients were evaluated.

[4] = tested on: patients with PD and constipation; assay: Phase 2 trial Stage 2 (daily dosing): bowel function, stool related indices; type: in vivo, human
Protocol: as §1
The primary efficacy outcome variable was whether or not a subject was a “success” or “failure”. This is an endpoint based on subject diary entries for the “fixed dose” period prior to the endpoint assessment defined as average complete stool frequency increase by 1 or more over baseline, or 3 or more complete spontaneous stools/week. The subject was deemed a “success” if s/he met one or more of the criteria listed above, otherwise the subject was deemed a “failure”. The primary analysis was based on all subjects with a baseline assessment and an assessment at the end of the “fixed-dose” period and was a comparison of the proportion of successes with 0.10 (the null hypothesis corresponding to no treatment effect).

[5] = tested on: patients with PD; assay: CNS / neurological symptoms in Stage 2 (UPDRS, MMSE, PDHQ, BDI-II); type: in vivo, human; conditions: during treatment; patients with hallucinations (5) or delusions (1) at baseline
Source text: Exploratory end-points, in addition to constipation, included for example, (i) depression assessed using the Beck Depression Inventory (BDI-II) (Steer et al. 2000) and Unified Parkinson's Disease Rating Scale (UPDRS); (ii) cognition assessed using the Mini Mental State Examination (MMSE) (Palsteia et al. 2018), Unified Parkinson's Disease Rating Scale (UPDRS), and Trail Making Test (TMT); (iii) sleep and REM-behavior disorder (RBD) using a daily sleep diary, I-Button Temperature Assessment, a REM sleep behavior disorder (RBD) questionnaire (RBDQ) (Stiasny-Kolster et al. 2007), and the UPDRS; (iv) hallucinations assessed using the PD hallucinations questionnaire (PDHQ) (Papapetropoulos et al. 2008), the UPDRS, and direct questioning; (v) fatigue using the Parkinson's Disease Fatigue Scale (PFS-16) and the UPDRS; (vi) motor functions using the UPDRS; and (vii) non-motor functions using the UPDRS.
Assessments were made at baseline and at the end of the fixed dose and washout periods. Circadian system status was evaluated by continuously monitoring wrist skin temperature (Thermochron iButton DS1921H; Maxim, Dallas) following published procedures (Sarabia et al. 2008). […]
CNS symptoms were evaluated at baseline and at the end of the fixed dose period and the wash-out period (Table 12). […]

[6] = tested on: mouse models of PD; conditions: oral; mice with constipation due to overexpression of human αS (West et al, manuscript in preparation); cited from earlier work
[7] = Pharmacokinetics of orally administered squalamine (ENT-01) in Stage 1; type: in vivo; conditions: human, this study
Protocol: PK data were collected on the 10 patients enrolled in Stage 1 and 10 patients enrolled in Stage 2 to determine the extent of systemic absorption. In Stage 1, PK data were obtained at each visit, pre-medication, at 1, 2, 4, 8 and 24 hours (Table 10). In Stage 2, PK was measured on days 1 and 6 of the randomization period pre-medication, at 1, 2, 4 and 8 hours (Table 11).
The mean Cmax, Tmax and T1/2 and AUC of the squalamine ion following squalamine (ENT-01) oral dosing for Stage 1 patients. The PK analyses are only approximate, as the lower limit of the validated concentration range was 10 ng/ml; most of the measured concentrations fell below that value. The mean Cmax, Tmax and T1/2 and AUC of the squalamine ion following squalamine (ENT-01) oral dosing for Stage 2 patients. The PK analyses are only approximate, as the lower limit of the validated concentration range was 0.5 ng/ml.

[8] = following systemic administration, in mice; cited from earlier work
[9] = tested on: IPANs (intrinsic primary afferent neuron); conditions: isolated bowel segment, PD mouse model, luminal perfusion; cited from earlier work

SMILES: CC(C)[C@@H](CC[C@@H](C)[C@H]1CC[C@H]2[C@@H]3[C@H](O)C[C@H]4C[C@@H](NCCCNCCCCN)CC[C@]4(C)[C@H]3CC[C@]12C)OS(=O)(=O)O (single isomer, unassigned) [squalamine (ENT-01), squalamine]
- circadian rhythm of wrist skin temperature (IS, IV, RA, CFI) [1]: significant positive impact
- circadian rhythm of wrist skin temperature (IS, IV, RA, CFI) ([1]; listed as ENT-01): improved all markers of healthy circadian function
- circadian rhythm parameters (IS, CFI) ([1]; wash-out period vs baseline): improvement persisted for several of these circadian parameters
- Abdominal pain, Mild [2]: 2 (20) n
- Abdominal pain, Moderate [2]: 3 (30) n
- Blood in urine, Moderate [2]: 0 n
- Diarrhea, Mild [2]: 1 (10) n
- Diarrhea, Moderate [2]: 3 (30) n
- Diarrhea, Severe [2]: 0 n
- Difficulty falling asleep, Mild [2]: 0 n
- Difficulty falling asleep, Moderate [2]: 0 n
- Dizziness, Mild [2]: 0 n
- Dizziness, Moderate [2]: 0 n
- Eye infection, Mild [2]: 0 n
- Eye infection, Moderate [2]: 0 n
- Flatulence, Mild [2]: 2 (20) n
- Flatulence, Moderate [2]: 0 n
- Headache, Mild [2]: 1 (10) n
- Headache, Moderate [2]: 0 n
- Increased urinary frequency, Mild [2]: 0 n
- Increased urinary frequency, Moderate [2]: 0 n
- Loss of appetite, Moderate [2]: 0 n
- Lower GI bleed, Severe [2]: 0 n
- Nausea, Mild [2]: 4 (40) n
- Nausea, Moderate [2]: 0 n
- Skin lesions-rash, Mild [2]: 0 n
- Skin lesions-rash, Moderate [2]: 0 n
- Urinary retention, Mild [2]: 0 n
- Urinary retention, Moderate [2]: 0 n
- Urinary tract infection, Mild [2]: 0 n
- Urinary tract infection, Moderate [2]: 0 n
- Vomiting, Mild [2]: 1 (10) n
- Vomiting, Moderate [2]: 0 n
- Worsening acid reflux, Mild [2]: 0 n
- Worsening acid reflux, Moderate [2]: 0 n
- Worsening hemorrhoid, Mild [2]: 0 n
- Worsening hemorrhoid, Moderate [2]: 0 n
- Blood in urine, Mild ([2]; unrelated to ENT-01): 1 (10) n
- Loss of appetite, Mild ([2]; unrelated to ENT-01): 1 (10) n
- patients who withdrew during dosing because of diarrhea [3]: 2
- response rate (CSBM within 24 hours of dosing on at least 2 of 3 days) ([4]; Stage 2, daily dosing, at 250 mg (range 75-250 mg)): 85%
- SBM, weekly average ([4]; Stage 2, fixed dose, mean (SD), n = 34, baseline 2.6 (1.45)): 4.5 (2.21) /week
- patients in whom hallucinations and delusions improved or disappeared [5]: 5 of 6

SMILES: CC(C)[C@@H](CC[C@@H](C)[C@H]1CC[C@H]2[C@@H]3[C@H](O)C[C@H]4C[C@@H](NCCCNCCCCN)CC[C@]4(C)[C@H]3CC[C@]12C)OS(=O)(=O)O [squalamine]
- gastro-intestinal motility [6]: stimulates gastro-intestinal motility
- systemic absorption following oral administration [7]: not significantly absorbed into the systemic circulation
- clearance and excretion [8]: cleared by the liver and excreted as the intact molecule
- effect on IPANs [9]: excitation of IPANs

From patent US20200038419A1, “METHODS OF TREATING MULTIPLE SYSTEM ATROPHY USING AMINOSTEROL COMPOSITIONS” (Enterin, Inc., priority 2018, published 2020)
